Assay results: ChEMBL document CHEMBL5236655, “Role of symmetry in 3,3-diphenyl-1,3-dihydroindol-2-one derivatives as inhibitors of translation initiation” (Bioorg Med Chem Lett, 2023)
pIC50: −log10 of the molar value.

Columns and labels:
[1] = Antiproliferative activity against human CRL-2351 cells incubated for 5 days by SRB assay; type: functional, cell-based; conditions: CRL-2351, 120 h
[2] = biological target: Interferon-induced, double-stranded RNA-activated protein kinase (Homo sapiens) (UniProt P19525); assay: Induction of eIF2alpha phosphorylation (unknown origin) assessed as fold increase in ATF-4 stimulation at 40 uM by dual luciferase reporter assay; conditions: filed as activator
Sequence of Interferon-induced, double-stranded RNA-activated protein kinase (Homo sapiens) (P19525 whole entry): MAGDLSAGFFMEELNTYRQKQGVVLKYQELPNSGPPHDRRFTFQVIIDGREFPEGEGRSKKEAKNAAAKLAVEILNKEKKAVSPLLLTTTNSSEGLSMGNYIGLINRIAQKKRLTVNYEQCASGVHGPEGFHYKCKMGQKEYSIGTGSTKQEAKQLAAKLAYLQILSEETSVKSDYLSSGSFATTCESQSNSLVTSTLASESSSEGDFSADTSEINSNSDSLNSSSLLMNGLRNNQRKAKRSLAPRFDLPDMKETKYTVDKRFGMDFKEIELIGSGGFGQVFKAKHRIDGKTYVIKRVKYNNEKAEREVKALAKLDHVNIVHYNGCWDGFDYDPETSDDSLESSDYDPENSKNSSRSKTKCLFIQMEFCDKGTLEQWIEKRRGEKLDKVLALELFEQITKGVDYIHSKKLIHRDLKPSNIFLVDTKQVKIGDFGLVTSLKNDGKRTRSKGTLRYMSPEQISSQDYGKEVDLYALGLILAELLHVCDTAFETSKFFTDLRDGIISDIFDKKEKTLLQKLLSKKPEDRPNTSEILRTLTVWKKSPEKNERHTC

[3] = Antiproliferative activity against human CRL-2813 cells incubated for 5 days by SRB assay; type: functional, cell-based; conditions: CRL2813, 120 h
[4] = biological target: Interferon-induced, double-stranded RNA-activated protein kinase (Homo sapiens) (UniProt P19525); assay: Induction of eIF2alpha phosphorylation (unknown origin) assessed as fold increase in ATF-4 stimulation at 2.5 uM by dual luciferase reporter assay; conditions: filed as activator
[5] = biological target: Interferon-induced, double-stranded RNA-activated protein kinase (Homo sapiens) (UniProt P19525); assay: Induction of eIF2alpha phosphorylation (unknown origin) assessed as fold increase in ATF-4 stimulation at 20 uM by dual luciferase reporter assay; conditions: filed as activator
[6] = biological target: Interferon-induced, double-stranded RNA-activated protein kinase (Homo sapiens) (UniProt P19525); assay: Induction of eIF2alpha phosphorylation (unknown origin) assessed as fold increase in ATF-4 stimulation at 80 uM by dual luciferase reporter assay; conditions: filed as activator
[7] = biological target: Interferon-induced, double-stranded RNA-activated protein kinase (Homo sapiens) (UniProt P19525); assay: Induction of eIF2alpha phosphorylation (unknown origin) assessed as fold increase in ATF-4 stimulation at 10 uM by dual luciferase reporter assay
[8] = biological target: Interferon-induced, double-stranded RNA-activated protein kinase (Homo sapiens) (UniProt P19525); assay: Induction of eIF2alpha phosphorylation in human CRL-2813 cells assessed as fold increase in CHOP expression incubated for 6 hrs by RT-PCR analysis; type: cell-based; conditions: filed as activator, dose 10.0 µM
[9] = biological target: Interferon-induced, double-stranded RNA-activated protein kinase (Homo sapiens) (UniProt P19525); assay: Induction of eIF2alpha phosphorylation (unknown origin) assessed as fold increase in ATF-4 stimulation at 5 uM by dual luciferase reporter assay; conditions: filed as activator

Compound	pIC50 [1]	fold change (FC) [2]	pIC50 [3]	also measured
CC(=O)OCCOc1ccc(C(C)(C)C)cc1C1(c2cc(C(C)(C)C)ccc2O)C(=O)Nc2ccccc21 (stereo not drawn)	5.57	8.59	5.80	
CN(C)CCOc1ccc(C(C)(C)C)cc1C1(c2cc(C(C)(C)C)ccc2OCCN(C)C)C(=O)N(CCN(C)C)c2ccccc21	6.30		6.15	fold change (FC) [4]: 16.8
CN1CCN(CCOc2ccc(C(C)(C)C)cc2C2(c3cc(C(C)(C)C)ccc3O)C(=O)Nc3ccccc32)CC1 (stereo not drawn)	6.12		5.85	fold change (FC) [5]: 24.6
CC(C)(C)c1ccc(O)c(C2(c3cc(C(C)(C)C)ccc3OCCBr)C(=O)N(CCBr)c3ccccc32)c1 (stereo not drawn)	5.34		6.15	fold change (FC) [6]: 1.99
COCOc1ccc(C(C)(C)C)cc1C1(c2cc(C(C)(C)C)ccc2O)C(=O)Nc2ccccc21 (stereo not drawn)	5.38	1.21	5.66	
CC(C)(C)c1ccc(O)c(C2(c3cc(C(C)(C)C)ccc3OCCN3CCNCC3)C(=O)Nc3ccccc32)c1 (stereo not drawn)	6.05		5.82	fold change (FC) [5]: 15.1
CN(C)CCN1C(=O)C(c2cc(C(C)(C)C)ccc2OCCN2CCCC2)(c2cc(C(C)(C)C)ccc2OCCN2CCCC2)c2ccccc21	6.27		6.10	fold change (FC) [4]: 11.8
CCN(CC)CCOc1ccc(C(C)(C)C)cc1C1(c2cc(C(C)(C)C)ccc2OCCN(CC)CC)C(=O)Nc2ccccc21	≥ 6.27		6.00	fold change (FC) [7]: < 0.54
CC(C)(C)c1ccc(O)c(C2(c3cc(C(C)(C)C)ccc3O)C(=O)N(CCBr)c3ccccc32)c1	5.82	9.6	5.85	
CC(C)(C)c1ccc(O)c(C2(c3cc(C(C)(C)C)ccc3OCCO)C(=O)Nc3ccccc32)c1 (stereo not drawn)	5.06	10.8	5.54	
CC(C)(C)c1ccc(O)c(C2(c3cc(C(C)(C)C)ccc3OCCN3CCCC3)C(=O)N(CCN3CCCC3)c3ccccc32)c1 (stereo not drawn)	5.44	9.09	5.14	
CC(C)(C)c1ccc(OCCN2CCOCC2)c(C2(c3cc(C(C)(C)C)ccc3OCCN3CCOCC3)C(=O)N(CCN3CCOCC3)c3ccccc32)c1	5.64	10.8	5.57	fold change (FC) [8]: 3
CC(C)(C)c1ccc(OCCO)c(C2(c3cc(C(C)(C)C)ccc3OCCO)C(=O)Nc3ccccc32)c1	5.57		5.54	fold change (FC) [5]: 3.42
CC(C)(C)c1ccc(O)c(C2(c3cc(C(C)(C)C)ccc3OCCN3CCCC3)C(=O)Nc3ccccc32)c1 (stereo not drawn)	6.00		4.97	fold change (FC) ([7]; filed as activator): 2.73
CN(C)CCN1C(=O)C(c2cc(C(C)(C)C)ccc2O)(c2cc(C(C)(C)C)ccc2OCCN2CCCC2)c2ccccc21 (stereo not drawn)	≥ 6.27		≥ 6.27	fold change (FC) ([7]; filed as activator): 9.08
COCCOc1ccc(C(C)(C)C)cc1C1(c2cc(C(C)(C)C)ccc2OCCOC)C(=O)Nc2ccccc21	5.34		6.15	fold change (FC) [6]: 1.58
CC(=O)OCCOc1ccc(C(C)(C)C)cc1C1(c2cc(C(C)(C)C)ccc2OCCOC(C)=O)C(=O)Nc2ccccc21	5.60		5.70	fold change (FC) [6]: 2.07
CN(C)CCOc1ccc(C(C)(C)C)cc1C1(c2cc(C(C)(C)C)ccc2O)C(=O)N(CCN(C)C)c2ccccc21 (stereo not drawn)	6.52		6.05	fold change (FC) ([7]; filed as activator): 14.3

Compound	pIC50 [1]	fold change (FC) [2]	pIC50 [3]	also measured
CN1CCN(CCOc2ccc(C(C)(C)C)cc2C2(c3cc(C(C)(C)C)ccc3OCCN3CCN(C)CC3)C(=O)N(CCN3CCN(C)CC3)c3ccccc32)CC1	6.22			fold change (FC) ([7]; filed as activator): 6.73
CC(C)(C)c1ccc(O)c(C2(c3cc(C(C)(C)C)ccc3O)C(=O)Nc3ccccc32)c1	5.55		4.99	fold change (FC) ([7]; filed as activator): 5.2; fold change (FC) [8]: 3
CCN(CC)CCOc1ccc(C(C)(C)C)cc1C1(c2cc(C(C)(C)C)ccc2OCCN(CC)CC)C(=O)N(CCN(CC)CC)c2ccccc21	≥ 6.27		6.14	fold change (FC) [4]: 14.3
CC(C)(C)c1ccc(OCCN2CCOCC2)c(C2(c3cc(C(C)(C)C)ccc3OCCN3CCOCC3)C(=O)Nc3ccccc32)c1	5.77		5.62	fold change (FC) [5]: 4.98; fold change (FC) [8]: 3
CC(C)(C)c1ccc(OCCN2CCCC2)c(C2(c3cc(C(C)(C)C)ccc3OCCN3CCCC3)C(=O)Nc3ccccc32)c1	6.19		6.10	fold change (FC) [9]: 13.9
CN(C)CCOc1ccc(C(C)(C)C)cc1C1(c2cc(C(C)(C)C)ccc2O)C(=O)Nc2ccccc21 (stereo not drawn)	5.72		5.92	fold change (FC) [5]: 4.65
CC(C)(C)c1ccc(O)c(C2(c3cc(C(C)(C)C)ccc3OCCBr)C(=O)Nc3ccccc32)c1 (stereo not drawn)	5.62	12.9	6.00	
CN(C)CCOc1ccc(C(C)(C)C)cc1C1(c2cc(C(C)(C)C)ccc2OCCN(C)C)C(=O)Nc2ccccc21	4.99	1.34	4.90	
CCN(CC)CCOc1ccc(C(C)(C)C)cc1C1(c2cc(C(C)(C)C)ccc2O)C(=O)Nc2ccccc21 (stereo not drawn)	6.22		5.82	fold change (FC) [5]: 16.7
CC(C)(C)c1ccc(O)c(C2(c3cc(C(C)(C)C)ccc3OCCN3CCOCC3)C(=O)Nc3ccccc32)c1 (stereo not drawn)	≥ 6.27	5.69	5.78	fold change (FC) [8]: 3
CC(C)(C)c1ccc(OCCN2CCCC2)c(C2(c3cc(C(C)(C)C)ccc3OCCN3CCCC3)C(=O)N(CCN3CCCC3)c3ccccc32)c1	6.26		5.83	fold change (FC) [4]: 12.1
CC(C)(C)c1ccc(O)c(C2(c3cc(C(C)(C)C)ccc3OCCN3CCCCC3)C(=O)Nc3ccccc32)c1 (stereo not drawn)	6.15		5.47	fold change (FC) [5]: 4.15
CN1CCN(CCOc2ccc(C(C)(C)C)cc2C2(c3cc(C(C)(C)C)ccc3OCCN3CCN(C)CC3)C(=O)Nc3ccccc32)CC1	6.70		6.13	fold change (FC) ([7]; filed as activator): 9.7
CC(C)(C)c1ccc(OCCN2CCNCC2)c(C2(c3cc(C(C)(C)C)ccc3OCCN3CCNCC3)C(=O)Nc3ccccc32)c1	6.10	11.4	5.82	
CC(C)(C)c1ccc(O)c(C2(c3cc(C(C)(C)C)ccc3OCCN3CCOCC3)C(=O)N(CCN3CCOCC3)c3ccccc32)c1 (stereo not drawn)	5.44		5.70	fold change (FC) [6]: 31.9
CC(C)(C)c1ccc(O)c(C2(c3cc(C(C)(C)C)ccc3O)C(=O)N(CCN3CCOCC3)c3ccccc32)c1	5.66	4.3	5.80	fold change (FC) [8]: 3
CC(C)(C)c1ccc(OCCN2CCCCC2)c(C2(c3cc(C(C)(C)C)ccc3OCCN3CCCCC3)C(=O)Nc3ccccc32)c1	5.67		4.94	fold change (FC) [6]: 5.91
CN(C)CCN1C(=O)C(c2cc(C(C)(C)C)ccc2O)(c2cc(C(C)(C)C)ccc2O)c2ccccc21	5.57		< 4.70	fold change (FC) [5]: 7.12; fold change (FC) [8]: 3
